Test results: patent publication US20240366539A1, “METHODS FOR TREATING AUTISM SPECTRUM DISORDERS” (INSTITUT NATIONAL DE LA SANTÉ ET DE LA RECHERCHE MÉDICALE, priority 2021, published 2024)

Columns and labels:
Oprm1^−/− mice [1] = test: Direct social interaction test; type: in vivo, mouse
Method: (§1) Mice were treated with vehicle (NaCl 0.9%; ip, 10 or 20 ml/kg), NaBr (Sigma-Aldrich, Saint-Quentin Fallavier, France) administered either chronically (once a day, 10, 30, 70, 125, 250 and 500 mg/kg; i.p. or per os, in a volume of 20 ml/kg—except for combination with VU0155041: […]) or acutely (250 mg/kg, 20 ml/kg), KBr (Sigma-Aldrich, Saint-Quentin Fallavier, France; 145 mg/kg; i.p., 20 ml/kg), bumetanide (R&D systems, Minneapolis, USA, 0.5 and 2 mg/kg; i.p., 20 ml/kg) or VU0155041 (Cayman Chemicals, Ann Arbor, USA, once a day, i.p., 1 mg/kg, 10 ml/kg). […] When treatment was given chronically, behavioral testing started 8 days after beginning of daily administration. Treatment was maintained for 8 to 18 consecutive days (see timelines in FIGS. 1 and 4), allowing thorough behavioral phenotyping. On testing days, or when treatment was given acutely, drugs (or vehicle) were administered 30 min before behavioral assays.
When assessing effects of chronic administration, experiments were performed successively (timelines in FIGS. 1 and 4) (51, 60). Testing order was chosen to minimize the incidence of anxiety on later assays. Direct social interaction and novelty suppressed feeding were performed in 4 equal square arenas (open fields, 50×50 cm) separated by 35 cm-high opaque grey Plexiglas walls over a white Plexiglas platform (View Point, Lyon, France). Stimulus mice used for the three-chamber test were 8-14-week-old grouped-housed male or female wild-type mice, socially naive to the experimental animals.
(§2) Direct social interaction test. On testing day, a pair of unfamiliar mice (not cage mates, age-, sex- and treatment-matched) was introduced in each arena for 10 min (15 lx). Each arena received a black plastic floor (transparent to infrared). […] The mean duration of nose and paw contacts was calculated from previous data (61-63).

Oprm1^−/− mice [2] = test: Behavioral tests of social, repetitive and anxious behavior (oral NaBr, KBr; data not shown); settings: mouse, in vivo, po, 250 mg/kg
Method: as §1
Also, we assessed the behavioral effects of chronic administration of another bromide salt, KBr.

Fmr1^−/− mice [3] = test: Direct social interaction test; type: in vivo, mouse
Method: as §1, §2
(§3) To this purpose, we evaluated the effects of chronic NaBr administration at the dose of 250 mg/kg on autism-sensitive behaviors in these lines (FIG. 3A).

Shank3^Δex13-16−/− mice [4] = test: Direct social interaction test; type: in vivo, mouse; settings: Shank3Δex13-16−/− mice
Method: as §1, §2, §3

Fmr1^−/− mice [5] = test: Y-maze exploration; type: in vivo, mouse; settings: chronic NaBr 250 mg/kg once daily
Method: as §1
(§4) Y-maze exploration. Spontaneous alternation behavior was used to assess perseverative behavior (65-67). Each Y-maze consisted of three connected Plexiglas arms (15×15×17 cm) covered with distinct wall patterns (15 lx). Floors were covered with lightly sprayed fresh sawdust to limit anxiety.
as §3

Shank3^Δex13-16−/− mice [6] = test: Y-maze exploration; type: in vivo, mouse; settings: Shank3Δex13-16−/− mice; chronic NaBr 250 mg/kg once daily
Method: as §1, §4, §3

[7] = Oprm1−/− mice, chronic once daily, NaBr 10-500 mg/kg (effect from 125 mg/kg) or bumetanide 0.5 and 2 mg/kg, D9
[8] = Oprm1−/− mice, one week after cessation of chronic treatment (NaBr over 70 mg/kg, highest doses; bumetanide depending on the dose)
[9] = chronic NaBr 250 mg/kg once daily
[10] = one week after interruption of NaBr 250 mg/kg

[Br-].[Na+] [NaBr, sodium bromide]
social interaction in wild-type controls (Oprm1^−/− mice [1]; Oprm1+/+ mice, chronic once daily, NaBr 10-500 mg/kg or bumetanide 0.5 and 2 mg/kg): had no detectable effect in Oprm1^+/+ mice
social interaction behavioral parameters (Oprm1^−/− mice [1]; Oprm1−/− mice, NaBr 70 mg/kg, VU0155041 1 mg/kg, alone or combined, once daily, chronic): had no detectable effects on behavioral parameters
social interaction deficit (Oprm1^−/− mice [1]; Oprm1−/− mice, chronic once daily i.p., NaBr 10-500 mg/kg or bumetanide 0.5 and 2 mg/kg, D9): from the dose of 125 mg/kg dose-dependently relieved this deficit
number of nose contacts (Oprm1^−/− mice [1]; Oprm1−/− mice, chronic once daily, NaBr 10-500 mg/kg (effect from 125 mg/kg) or bumetanide 0.5 and 2 mg/kg (effect at low dose), D9): restored number
mean duration of nose contacts (Oprm1^−/− mice [1]; [7]): restored
mean duration of paw contacts (Oprm1^−/− mice [1]; [7]): normalized
number of paw contacts (Oprm1^−/− mice [1]; [7]): normalized number
grooming after social contact (Oprm1^−/− mice [1]; Oprm1−/− mice, chronic once daily, NaBr 10-500 mg/kg or bumetanide 0.5 and 2 mg/kg, D9): normalized the frequency of grooming after social contact in mutants, since the dose of 70 mg/kg
duration of nose contacts (Oprm1^−/− mice [1]; [8]): preserved restoration of the duration of nose contacts
grooming after social contact (Oprm1^−/− mice [1]; [8]): maintained suppression of grooming after social contact
social interaction parameters (Oprm1^−/− mice [1]; Oprm1−/− mice, single acute injection of NaBr 250 mg/kg, data not shown): had little effect on social interaction parameters
relieving effects on social interaction (Oprm1^−/− mice [1]; Oprm1−/− mice, two weeks after cessation of chronic NaBr, data not shown): had mostly vanished after two weeks
number of following episodes (Oprm1^−/− mice [1]; chronic once daily, NaBr 10-500 mg/kg (both mouse lines) or bumetanide (at low dose), D9): increased the number of following episodes in both mouse lines
autistic-like deficits and motor stereotypies (Oprm1^−/− mice [2]): relieved autistic-like deficits and motor stereotypies in Oprm1^−/− mice in a similar way as it did after intra-peritoneal injection
duration of nose contacts (Fmr1^−/− mice [3]; [9]): restored the duration of nose
duration of paw contacts (Fmr1^−/− mice [3]; [9]): restored
grooming after social contact (Fmr1^−/− mice [3]; [9]): suppressed grooming after social contact
number of following episodes (Fmr1^−/− mice [3]; [9]): normalized the number of following episodes
duration of paw contacts (Fmr1^−/− mice [3]; [10]): significant beneficial effects were still detected
number of grooming episodes after a social contact (Fmr1^−/− mice [3]; [10]): significant beneficial effects were still detected
duration of nose contacts (Shank3^Δex13-16−/− mice [4]; [9]): restored the duration of nose
duration of paw contacts (Shank3^Δex13-16−/− mice [4]; [9]): restored
grooming after social contact (Shank3^Δex13-16−/− mice [4]; [9]): suppressed grooming after social contact
number of following episodes (Shank3^Δex13-16−/− mice [4]; [9]): normalized the number of following episodes
duration of paw contacts (Shank3^Δex13-16−/− mice [4]; [10]): no effect of previous bromide treatment was longer detected
grooming after social contact (Shank3^Δex13-16−/− mice [4]; [10]): remained efficiently suppressed
perseverative same arm returns (Fmr1^−/− mice [5]): suppressed under chronic bromide
perseverative same arm returns (Shank3^Δex13-16−/− mice [6]): suppressed under chronic bromide
